This is an account of results in BindingDB's records for doi:10.1042/BJ20030674 (University of Padova, 2003).

What is called IC50 is the concentration that inhibits the measured activity by half.

A short description of this assay: In vitro kinase assay using purified enzyme, was incubated at room temperature with substrate, and test compounds in the presence of 100 uM ATP/ [gamma-33P] ATP. 33P incorporation was measured with scintillation counter. IC50 values were calculated from dose-response curves; from these calculated apparent inhibition constants (Ki) were obtained usin. As to conditions: pH 7.5.

SMILES strings stand for the structures.

For `OCCCNc1cc(-c2ccnc(Nc3cccc(OC(F)(F)C(F)F)c3)n2)ccn1` [3-{[4-(2-{[3-(1,1,2,2-tetrafluoroethoxy)phenyl]amino}pyrimidin-4-yl)pyridin-2-yl]amino}propan-1-ol], the IC50 was 3.6 µM. As for `NCCNc1cc(-c2ccnc(Nc3cccc(Cl)c3)n2)ccn1` [4-{2-[(2-aminoethyl)amino]pyridin-4-yl}-N-(3-chlorophenyl)pyrimidin-2-amine], the figure is 9.6 µM. To `Clc1cccc(Nc2nccc(-c3ccnc(NCCc4cnc[nH]4)c3)n2)c1` [N-(3-chlorophenyl)-4-(2-{[2-(1H-imidazol-4-yl)ethyl]amino}pyridin-4-yl)pyrimidin-2-amine] belongs 3.2 µM.
